# According to patent publication US4670434A, “(2-oxo-3-methylene-1,2,3,5-tetrahydroimidazo[2,1-b]q uinazolinyl)oxyalkylamides useful as cyclic AMP phosphodiesterase inhibitors” (Syntex (U.S.A.) Inc., priority 1985, dated 1987):
# Columns and labels:
# [1] = tested on: Mongrel dogs; test: Inotropic activity in anesthetized mongrel dogs; format: in vivo; conditions: intravenous, anesthetized dog
# Description: The inotropic activity of these compounds was determined as follows: Mongrel dogs were anesthetized i.v. with 35 mg/Kg sodium pentobarbital and supplemented as needed. Blood pressure was measured with a Statham pressure transducer via a cannula inserted from a femoral artery into the abdominal aorta. Heart rate was recorded by a cardiotachometer from a lead II electrocardiogram. Right ventricular contractile force was recorded from a Walton-Brodie strain gauge sutured to the right ventricle following a midsternal thoracotomy. A Harvard respirator was used to ventilate the dogs with room air through an endotracheal tube. The dog was bilaterally vagotomized. Following a midline laparotomy, a cannula was sutured into the duodenum for intraduodenal administration of test compound. A femoral vein was cannulated for administration of isoproterenol. All data were recorded on a Beckman R611 Dynograph.
# To assess the responsiveness of each dog, isoproterenol was given i.v. at half-log interval doses from 0.007 to 2.1 or 6.67 μg/Kg. The test compound, N-cyclohexyl-N-methyl-4-(2-oxo-3-methylene-1,2,3,5-tetrahydroimidazo-[2,1- b]quinazolin-7-yl)oxybutanamide, was then administered intravenously at dose levels from 0.1 to 1.0 mg/Kg.
# [2] = tested on: Human platelet cyclic AMP phosphodiesterase; test: Cyclic AMP phosphodiesterase assay; format: biochemical; conditions: 1 μM cyclic AMP as substrate; human platelet enzyme; read-out: IC50 value, inhibition of cyclic AMP phosphodiesterase
# Description: (§1) Cyclic AMP phosphodiesterase activity and inhibition of platelet aggregation were determined as follows.
# Cyclic AMP phosphodiesterase assay
# The inhibition of cyclic AMP phosphodiesterase activity by the subject compounds was assayed by the method of Filburn and Karn, Analyt. Biochem., 52: 505-516 (1973), using 1 μM cyclic AMP as the substrate. Human platelet cyclic AMP phosphodiesterase was obtained from human donors. Platelets were isolated and washed by centrifugation, the membranes ruptured by a sequential freeze-thaw procedure and hypotonic lysis and the soluble enzyme isolated by high speed centrifugation. The enzyme was stored in aliquots at -20° C.
# [3] = tested on: human platelets; test: Platelet aggregation (turbidimetric); format: cell-based; conditions: platelet rich plasma
# Description: as §1
# Blood was collected into evacuated tubes containing sodium citrate (30 mM). Platelet rich plasma was collected after centrifugation. Aggregation was followed by a turbidimetric procedure described by G. V. R. Born, J. Physiol., Lond., 162: 67P-68P (1962).
smiles,measurement,setting,value
"C=c1c(=O)[nH]c2n1Cc1cc(OCCCC(=O)N(C)C3CCCCC3)ccc1N=2 [N-cyclohexyl-N-methyl-4-(2-oxo-3-methylene-1,2,3,5-tetrahydroimidazo[2,1-b]quinazolin-7-yl)oxybutanamide]","Peak Effects as % of Max. Isoproterenol, Blood Pressure",[1]; 0.1 mg/kg,42 % of Max. Isoproterenol
same,"Peak Effects as % of Max. Isoproterenol, Heart Rate",[1]; 0.1 mg/kg,18 % of Max. Isoproterenol
same,"Peak Effects as % of Max. Isoproterenol, Rt. Ventricular Contractile Force",[1]; 0.1 mg/kg,24 % of Max. Isoproterenol
same,"Peak Effects as % of Max. Isoproterenol, Blood Pressure",[1]; 0.316 mg/kg,58 % of Max. Isoproterenol
same,"Peak Effects as % of Max. Isoproterenol, Heart Rate",[1]; 0.316 mg/kg,28 % of Max. Isoproterenol
same,"Peak Effects as % of Max. Isoproterenol, Rt. Ventricular Contractile Force",[1]; 0.316 mg/kg,52 % of Max. Isoproterenol
same,"Peak Effects as % of Max. Isoproterenol, Blood Pressure",[1]; 1.0 mg/kg,65 % of Max. Isoproterenol
same,"Peak Effects as % of Max. Isoproterenol, Heart Rate",[1]; 1.0 mg/kg,34 % of Max. Isoproterenol
same,"Peak Effects as % of Max. Isoproterenol, Rt. Ventricular Contractile Force",[1]; 1.0 mg/kg,62 % of Max. Isoproterenol
same,IC50,[2],0.0027 µM
same,IC50,[3],0.15 µM
